# Source: PMC4790851, “Iminosugars Inhibit Dengue Virus Production via Inhibition of ER Alpha-Glucosidases—Not Glycolipid Processing Enzymes” (PLoS Neglected Tropical Diseases, 2016)
# “Also recorded” adds a separate entry of the source.
# Experiments:
# DENV2 D2S10 = test: Lethal mouse model of antibody-enhanced DENV infection; format: in vivo, AG129 mice; settings: 33.3 mg/kg/dose t.i.d. p.o.
# Description: Virus titers of samples isolated from infected mice were obtained by BHK-21 plaque assays in accordance with previous protocols. BHK-21 cells were seeded in 12-well plates (3 x 10^5 cells/well) in α-MEM medium containing 5% HI-FBS for 3 hours (37°C, 5% CO2). Medium was removed, log10 serial dilutions of virus in α-MEM with 2% HI-FBS were added, and cells were incubated for an additional 2 hours (37°C, 5% CO2). Following incubation, 1.5 ml of α-MEM containing 5% (v/v) HI-FBS and 1% (w/v) low-melting point tissue culture grade agarose (Sigma) was added to each well and allowed to solidify at room temperature before further incubation (37°C, 5% CO2) for 5 days. Plaques were visualised after fixation in 10% formaldehyde (1 hour, room temperature) and removal of the agarose plug by staining briefly (approximately 30 seconds) with 1% (w/v) crystal violet (Sigma) in 20% (v/v) ethanol (EtOH, Sigma). Concentrations were normalised to tissue mass (in grams) or serum volume (in ml) as appropriate.
# For animal experiments, multiplex qRT-PCR was conducted on all tissue isolates and plasma as described for in vitro experiments. Rodent glyceraldehyde 3-phosphate dehydrogenase (GAPDH) control (Life Technologies #4308313) containing a VIC reporter dye was attached to a TAMRA (tetramethylrhodamine) quencher, and experimental DENV NS5-specific target was labelled with FAM (6-fluorescein amidite) reporter dyes with a TAMRA quencher. GAPDH primers were used at 10 μM and probe at 20 μM. In the case of DENV qRT-PCR, quantitation using a DENV2-specific primer/probe set directed to NS5 was conducted using all primers and probe at 10 μM final concentration. Thermocycling was conducted as for in vitro experiments. Viral RNA from tissues was quantified by ΔΔCt method, whereas plasma samples were quantified relative to a standard curve as for in vitro experiments. Samples were read in technical duplicate and 95% confidence intervals were determined based on biological and technical variation and graphed using Prism 6 (GraphPad Software, Inc.).
# All experimental procedures were pre-approved by the UC Berkeley Animal Care and Use Committee and were performed according to the guidelines of the UC Berkeley Animal Care and Use Committee, the United States Public Health Service, and the USDA Animal Welfare Act. Mice of the 129/Sv background deficient in interferon (IFN)-α/β and -γ receptors (AG129 mice) were infected with DENV under antibody-enhanced conditions as previously described. Mice were primed 24 hours prior to infection with a 5 μg intraperitoneal (i.p.) injection of a pan-flavivirus monoclonal antibody against E protein, 4G2. At t = 0, 10^5 pfu of DENV2 D2S10 was injected intravenously. […]
# DENV = tested on: DENV; parameters: method as in PMID 22020302; settings: BHK-21 (hamster kidney) cell culture model; cited from earlier work
# [1] = serum at 80 h post-infection, AG129 mice, listed as celgosivir
compound,measurement,setting,value
"CCCC(=O)O[C@H]1CN2CC[C@H](O)[C@@H]2[C@@H](O)[C@@H]1O [Celgosivir, 6-O-butanoyl-castanospermine]",viral RNA levels in spleen,"DENV2 D2S10; 80 h post-infection, qRT-PCR normalized to GAPDH",enhanced viral RNA levels by approximately two orders of magnitude
same,infectious virus level in serum (BHK-21 plaque assay),"DENV2 D2S10; serum at 80 h post-infection, AG129 mice","reduced the average viral titer, but the differences were not statistically significant"
same,"circulating viral load (viral RNA, qRT-PCR)",DENV2 D2S10; [1],significantly reduced; also recorded: statistically significant reduction in viral RNA load
same,infectious virus level in serum (BHK-21 plaque assay),DENV2 D2S10; [1],not statistically significant
same,enhancement of antiviral efficacy over castanospermine,DENV,~ 100 fold
